According to article PMC4971421, “Redox-Dependent Modulation of T-Type Ca^2+ Channels in Sensory Neurons Contributes to Acute Anti-Nociceptive Effect of Substance P” (Antioxidants & Redox Signaling, 2016):
Ends that are not written are not given here.

Tests used:
[1] = test system: small-diameter DRG neurons; experiment: DRG neuron excitability, perforated patch current clamp; type: cell-based, rat
Procedure: To knock down CaV3.2, DRGs were dissociated as described ([13]); immediately after dissociation, DRG pellets were resuspended in 900 μl DMEM (without GlutaMax I, serum or antibiotics), to which a mixture of 9 μl Lipofectamine RNAiMAX (Invitrogen) and either a mix of three anti-Cacna1h Stealth siRNAs (RSS350285, RSS350286, RSS350287; Life Technologies; 200 nM each) or a scrambled control oligo (Stealth RNAi™ siRNA Negative Control; Life Technologies; 200 nM) were added immediately before resuspension. Cultures were than plated in 50 μl droplets onto glass coverslips that were coated with poly-D-lysine and incubated for 5–6 h; the transfection media were then replaced with full DRG culture medium. Patch-clamp recordings were conducted 24–48 h after the transfection. The following primers were used for reverse transcription polymerase chain reaction (RT-PCR) analysis: • Cacna1h sense: 5′-[…]-3′ • Cacna1h AS: 5′-[…]-3′ • Gapdh sense: 5′-[…]-3′ • Gapdh AS: 5′-[…]-3′
Neuronal excitability was studied using the amphotericin B-perforated patch-clamp current technique ([13]). The extracellular solution contained the following (in mM): 160 NaCl, 2.5 KCl, 5 CaCl2, 1 MgCl2, 10 HEPES, and 8 Glucose. The intracellular solution contained the following (in mM): 145 KCl, 15 NaCl, 5 MgCl2, 10 HEPES, and 250 μg/ml Amphotericin B. The access resistance was typically within […]. APs were generated by an injection of 200 pA current for 1 s from a holding current of 0 pA. Rheobase was determined from a train of current steps from 0 to 400 pA delivered in 20-pA increments. Current clamp recordings were sampled at 12.5 kHz. Bridge balance adjustments were not applied, since only relative changes in Erest, AP number, and rheobase were investigated.

rat hind paw [2] = experiment: von Frey test; type: in vivo; conditions: 50 μl; 0.001 nmol/site; filaments 2–15 g; 8 min after injection
Procedure: (§1) For measurement of sensitivity to gentle touch and mechanical hyperalgesia, two methods were used. (i) Cotton swab test was performed as previously described ([53]). Briefly, rats were allowed to acclimate in a cage with a wire mesh bottom for at least 30 min and then were manually probed with a “cotton swab” pulled from a Q-tip (to approximately three times the original size). A swab was applied in a sweeping motion underneath the rats’ paws, and the withdrawal responses were recorded. Five sweeps were applied in each test, with at least 10 s between each sweep; withdrawal score was calculated as a percentage of positive responses. (ii) The von Frey test was performed using a calibrated range of filaments with different bending forces (2, 4, 6, 8, 10, and 15 g; Stoelting Co.). A single filament was applied perpendicularly to the plantar surface of the hind paw for five times, with an interval of 5 s, and it was scored for withdrawal responses. Each force was probed five times, the number of withdrawals out of five trials was counted, and the percentage of withdrawal responses was calculated. Both types of assays were performed 8 min after the hind-paw drug injection.

CaV3 = conditions: cited from earlier work
Procedure: The T-type Ca^2+ current is an important regulator of sensory neuron excitability ([10], [17], [18], [20], [23], [24], [51], [71], [75]). […] Z944 (1 μM) inhibited LVA curren ...

[3] = test system: high-voltage-activated (HVA) Ca^2+ currents in DRG neurons; experiment: HVA Ca2+ current, whole-cell patch clamp, DRG neurons; type: cell-based, rat; conditions: 1 nM
Procedure: DRG neurons from adult male Sprague–Dawley rats (170–180 g) were dissociated as previously described ([13], [29]) and cultured in DMEM supplemented with GlutaMax I, 10% fetal calf serum, penicillin (50 U/ml), and streptomycin (50 μg/ml) on glass coverslips that were coated with poly-D-lysine for 2–5 days in a humidified incubator (37°C, 5% CO2). No growth factors were added to the culture media. HEK 293 cells were cultured in the same DMEM media; cells were passaged every 2 days. Human NK1 receptor (GenBank accession No. AY462098) complementary DNA (cDNA) was from the Missouri Science and Technology cDNA Resource Center. WtCaV3.1 (GenBank accession No. AF027984), wtCaV3.2 (GenBank accession No. AF051946), CaV3.1Q172H, and CaV3.2H191Q were kindly provided by Dr E. Perez-Reyes (University of Virginia). HEK293 cells were transfected using Lipofectamine 2000 (Invitrogen) according to the manufacturer's instructions. […]
All recordings were made using Multiclamp 700B amplifier in combination with pCLAMP 10.4 software (Molecular Devices). […] T-type calcium currents (LVA) were measured by 50 ms square voltage pulses to −40 mV from a holding potential of −90 mV. HVA currents were measured by 200 ms square voltage pulses to 0 mV from a holding potential of −90 mV.

rat hind paw [4] = experiment: Cotton swab test (gentle touch); type: in vivo; conditions: 50 μl; 0.001 nmol/site
Procedure: as §1

[5] = test system: T-type Ca^2+ channels (LVA Ca^2+ current) in DRG neurons; experiment: LVA (T-type) Ca2+ current, whole-cell patch clamp, cultured small-diameter DRG neurons; type: cell-based, rat; conditions: 1 nM; mean ± SEM, n = 7; SEM
Procedure: DRG neurons from adult male Sprague–Dawley rats (170–180 g) were dissociated as previously described ([13], [29]) and cultured in DMEM supplemented with GlutaMax I, 10% fetal calf serum, penicillin (50 U/ml), and streptomycin (50 μg/ml) on glass coverslips that were coated with poly-D-lysine for 2–5 days in a humidified incubator (37°C, 5% CO2). No growth factors were added to the culture media. HEK 293 cells were cultured in the same DMEM media; cells were passaged every 2 days. Human NK1 receptor (GenBank accession No. AY462098) complementary DNA (cDNA) was from the Missouri Science and Technology cDNA Resource Center. WtCaV3.1 (GenBank accession No. AF027984), wtCaV3.2 (GenBank accession No. AF051946), CaV3.1Q172H, and CaV3.2H191Q were kindly provided by Dr E. Perez-Reyes (University of Virginia). HEK293 cells were transfected using Lipofectamine 2000 (Invitrogen) according to the manufacturer's instructions. ST101 was synthesized in house; Z944 was from Toronto Research Chemicals; PTX was from Enzo Life Science; and FluoZin-3AM was from Life Technologies. All other chemicals were from Sigma.
All recordings were made using Multiclamp 700B amplifier in combination with pCLAMP 10.4 software (Molecular Devices). Voltage-clamp recordings from DRG neurons were made using whole-cell patch clamp. The standard bath solution contained the following (in mM): 150 TEA-Cl; 2.5 CsCl; 2.5 CaCl2; 10 HEPES; 0.5 MgCl2; and 10 glucose (pH 7.4 adjusted with CsOH). The standard pipette solution contained the following (in mM): 110 CsCl; 3 MgCl2; 10 EGTA; 10 HEPES; 3 Mg-ATP; and 0.6 GTP (pH 7.4 adjusted with CsOH). The access resistance was typically within 4–8 MΩ. T-type calcium currents (LVA) were measured by 50 ms square voltage pulses to −40 mV from a holding potential of −90 mV. HVA currents were measured by 200 ms square voltage pulses to 0 mV from a holding potential of −90 mV.
where y is the current inhibition; A1 and A2 are the maximum and minimum effects, respectively; x is the S9SP concentration; and nH is the Hill coefficient.

rat hind paw [6] = experiment: Nocifensive behavior after intraplantar hind-paw injection; type: in vivo; conditions: hind-paw injection 50 μl, 30 min
Procedure: Sprague–Dawley rats (body weight, 170–180 g) were grouped randomly and allowed to acclimate for at least 30 min in a transparent observation chamber before the experiment. Animals received a 50-μl intraplantar injection of ST101 (0.001–10 nmol/site), BK (10 nmol/site), RTG (1–10 nmol/site), Z944 (0.05–5 nmol/site), SP (0.5–5 nmol/site), or saline, respectively, into the right hind paw. For evaluation of the acute “spontaneous” pain, animals were video-recorded for 30 min after the injection and protective (“nocifensive”) behavior was analyzed as time spent licking, biting, lifting, and flinching the injected paw. The analyses were performed by an observer who was unaware of treatment allocations. In the pre-injection experiments, the right hind paw of the animal received a pre-injection of 50 μl Z944 (0.05–0.5 nmol/site), RTG (1–10 nmol/site), SP (0.5 nmol/site), Z944 (0.05–0.5 nmol/site)+RTG (1 nmol/site), or saline; 5 min later, on the same paw, the animal received a further 50-μl injection of BK (10 nmol/site) together with the pre-injection drug mix. Nocifensive behavior was analyzed as described earlier.

[7] = test system: voltage-gated Na^+ current in DRG neurons; experiment: Voltage-gated Na+ current in DRG neurons; type: cell-based, rat; conditions: 1 nM
[8] = test system: delayed-rectifier K^+ current in DRG neurons; experiment: Delayed-rectifier K+ current in DRG neurons; type: cell-based, rat; conditions: 1 nM
rat hind paw [9] = experiment: Hargreaves test, paw withdrawal latency to noxious heat; type: in vivo; conditions: hind-paw injection 0.001 nmol/site; 8 min after injection
Procedure: For measurement of thermal hyperalgesia, the change in the latency of hind-paw withdrawal in response to noxious heat was recorded using the Hargreaves’ plantar method (Ugo Basile) at 8 min after the hind-paw injection of drugs; the heat source was set to 25% of the maximal intensity.

Row | Compound | resting membrane potential (Erest) [1] | action potential (AP) firing ([1]; 200 pA for 1 s) | small DRG neuron excitability ([1]; perforated current clamp) | effect on Erest, AP number, or rheobase in Cacna1h knocked-down neurons ([1]; siRNA against Cacna1h) | response to von Frey filament stimulation (rat hind paw [2]) | EC50, CaV3 potentiation (CaV3) | effect on HVA current [3] | sensitivity to light touch, cotton swab assay (rat hind paw [4]) | enhancement of peak LVA current [5] | nocifensive behavior (rat hind paw [6]; 0.001–10 nmol/site) | effect on voltage-gated Na^+ current [7] | effect on delayed-rectifier K^+ current [8] | paw withdrawal latency on radiant heat exposure (rat hind paw [9]) | AP number ([1]; 250 nM) | Erest ([1]; 250 nM) | rheobase ([1]; 250 nM) | nocifensive behavior (rat hind paw [6]; 10 nmol/site)
1 | O=C1N=C2C=CC=CN2C12Cc1ccccc1C2 [ST101, spiro[imidazo[1,2-a]pyridine-3,2-indan]-2(3H)-one] | depolarized | significantly increased | increased | neither Z994 nor ST101 produced any significant effect | greatly increased response rates | sub-nanomolar range | without an effect | ineffective | 50.6% ± 14.1% | moderate but significant protective effect | no effect | no effect | significantly reduced |  |  |  | 
2 | RPPGFSPFR [BK, bradykinin, pro-algesic signaling peptide] |  |  |  |  |  |  |  |  |  |  |  |  |  | increased | depolarized | significantly reduced | strong nocifensive response
